Some results are limits rather than exact numbers.

Consider 21 compounds from patent publication US20090215778A1, “Alpha-substituted Arylmethyl Piperazine Pyrazolo [1,5-alpha]Pyrimidine Amide Derivatives” (priority 2007, published 2009).

Experiment [1] concerns HIV-1, NL4-3 strain. Kind of experiment: Virus infection assay (virus entry and single-cycle infection). The format is cell-based. As to conditions: Human immunodeficiency virus 1, NL43, TZM-b1, read-out: Nl4. In a few lines:
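Single-cycle entry/infection read-out: β-galactosidase chemiluminescence measured one day after infection. Compounds were present during a 4 h, 37 °C exposure of TZM-b1 reporter cells to NL4-3 virus at MOI 0.01 plus DEAE-dextran (80 μg/mL final), followed by addition of complete medium.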

Experiment [2] has as its target T1, HIV Env six-helix bundle (6HB) structure (Human immunodeficiency virus type 1 group M subtype B, UniProt P04579).
T1 construct: H9 cells chronically infected with HIV-1 (H9/HIV-1RF); endogenous in cells; host or cells: H9 cells chronically infected with HIV-1 strain RF (Env is made from the virus in the infected cells, not by transfection)
Kind of experiment: Six-helix bundle (6HB) assay. Type of experiment: cell-based, HIV-1 (strain RF). Summed up: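 Flow cytometry measured binding of a six-helix-bundle-specific polyclonal antibody, detected with PE-labelled secondary at 4 °C for 45 min, on H9/HIV-1 RF chronically infected cells. Compound was given 30 min at 37 °C before 1 μg/mL soluble CD4 induction for 1 h. Inhibition appears as reduced fluorescence.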

T1 sequence (P04579 32-519): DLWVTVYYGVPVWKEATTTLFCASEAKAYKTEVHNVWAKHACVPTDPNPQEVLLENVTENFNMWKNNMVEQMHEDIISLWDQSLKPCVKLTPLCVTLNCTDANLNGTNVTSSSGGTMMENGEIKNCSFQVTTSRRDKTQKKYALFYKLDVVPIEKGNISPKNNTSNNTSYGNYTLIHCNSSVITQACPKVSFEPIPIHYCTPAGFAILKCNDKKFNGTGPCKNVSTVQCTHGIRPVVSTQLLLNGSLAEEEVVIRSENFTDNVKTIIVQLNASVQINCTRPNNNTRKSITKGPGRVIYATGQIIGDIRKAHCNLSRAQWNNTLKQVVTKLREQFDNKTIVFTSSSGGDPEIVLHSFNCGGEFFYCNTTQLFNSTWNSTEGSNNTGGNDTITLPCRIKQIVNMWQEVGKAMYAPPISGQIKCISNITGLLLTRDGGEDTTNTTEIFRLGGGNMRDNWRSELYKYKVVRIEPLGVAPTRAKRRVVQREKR
T1 sequence (P04579 520-865): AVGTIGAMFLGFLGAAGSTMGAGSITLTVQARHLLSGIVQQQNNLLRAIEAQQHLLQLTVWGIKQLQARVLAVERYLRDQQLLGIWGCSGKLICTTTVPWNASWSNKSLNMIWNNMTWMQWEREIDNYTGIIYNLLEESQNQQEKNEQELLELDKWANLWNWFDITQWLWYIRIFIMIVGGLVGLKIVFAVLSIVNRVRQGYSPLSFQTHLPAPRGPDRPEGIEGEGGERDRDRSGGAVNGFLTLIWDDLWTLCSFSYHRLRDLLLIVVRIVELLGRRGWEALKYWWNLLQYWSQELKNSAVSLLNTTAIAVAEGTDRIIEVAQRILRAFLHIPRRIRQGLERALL

`COc1ccc2c(c1)CCc1c-2nc2c(C(=O)N3CCN([C@@H](CO)c4ccccc4)C[C@H]3C)cnn2c1C(F)(F)F` [methanone, [5,6-dihydro-3-methoxy-7-(trifluoromethyl)benzo[h]pyrazolo[5,1-b]quinazolin-11-yl][(2R)-4-[(1R)-2-hydroxy-1-phenylethyl]-2-methyl-1-piperazinyl]-]: the IC50 in experiment [1] and in experiment [2] was below 1 µM each time.
Turning to `Cc1c(-c2ccc(C3CC3)cc2)nc2c(C(=O)N3CCN([C@@H](CO)c4ccccc4)C[C@H]3C)cnn2c1C(F)(F)F` [methanone, [5-(4-cyclopropylphenyl)-6-methyl-7-(trifluoromethyl)pyrazolo[1,5-α]pyrimidin-3-yl][(2R)-4-[(1R)-2-hydroxy-1-phenylethyl]-2-methyl-1-piperazinyl]-], the IC50 in experiment [1] and in experiment [2] was below 1 µM in each case.
For `CCc1ccc(-c2nc3c(C(=O)N4CCN([C@@H](CO)c5ccccc5)C[C@H]4C)cnn3c(C(F)(F)F)c2C)cc1` [methanone, [5-(4-ethylphenyl)-6-methyl-7-(trifluoromethyl)pyrazolo[1,5-α]pyrimidin-3-yl][(2R)-4-[(1R)-2-hydroxy-1-phenylethyl]-2-methyl-1-piperazinyl]-], the IC50 in experiment [1] and in experiment [2] was below 1 µM throughout.
`C=CCN(C)CC(c1ccccc1)N1CCN(C(=O)c2cnn3c(C(F)(F)F)c(C)c(-c4ccc(OC)cc4)nc23)[C@H](C)C1` (stereo partly drawn) [methanone, [5-(4-methoxyphenyl)-6-methyl-7-(trifluoromethyl)pyrazolo[1,5-α]pyrimidin-3-yl][(2R)-2-methyl-4-[2-(methyl-2-propen-1-ylamino)-1-phenylethyl]-1-piperazinyl]]: the IC50 in experiment [1] and in experiment [2] was below 1 µM in each case.
Consider `CNCC(c1ccccc1)N1CCN(C(=O)c2cnn3c(C(F)(F)F)c(C)c(-c4ccc(OC)cc4)nc23)[C@H](C)C1` (stereo partly drawn) [methanone, [5-(4-methoxyphenyl)-6-methyl-7-(trifluoromethyl)pyrazolo[1,5-α]pyrimidin-3-yl][(2R)-2-methyl-4-[2-(methylamino)-1-phenylethyl]-1-piperazinyl]-], for which the IC50 in experiment [1] and in experiment [2] was below 1 µM in each case.
Regarding `COc1ccc(-c2nc3c(C(=O)N4CCN([C@H](C)c5cc(F)cc(F)c5F)C[C@H]4C)cnn3c(C(F)(F)F)c2C)cc1` [methanone, [5-(4-methoxyphenyl)-6-methyl-7-(trifluoromethyl)pyrazolo[1,5-α]pyrimidin-3-yl][(2R)-2-methyl-4-[(1R)-1-(2,3,5-trifluorophenyl)ethyl]-1-piperazinyl]-], the IC50 in experiment [1] and in experiment [2] was below 1 µM in each case.
For `COc1ccc(-c2nc3c(C(=O)N4CCN([C@H](C)c5cc(F)c(F)c(F)c5)C[C@H]4C)cnn3c(C(F)(F)F)c2C)cc1` [methanone, [5-(4-methoxyphenyl)-6-methyl-7-(trifluoromethyl)pyrazolo[1,5-α]pyrimidin-3-yl][(2R)-2-methyl-4-[(1R)-1-(3,4,5-trifluorophenyl)ethyl]-1-piperazinyl]-], the IC50 in experiment [1] and in experiment [2] was below 1 µM throughout.
Turning to `COc1ccc(-c2nc3c(C(=O)N4CCN([C@H](C)c5ccccc5)C[C@H]4C)cnn3c(C(F)(F)F)c2C)cc1` [methanone, [5-(4-methoxyphenyl)-6-methyl-7-(trifluoromethyl)pyrazolo[1,5-α]pyrimidin-3-yl][(2R)-2-methyl-4-[(1R)-1-phenylethyl]-1-piperazinyl]-], the IC50 in experiment [1] and in experiment [2] was below 1 µM each time.
On to `COc1ccc(-c2nc3c(C(=O)N4CCN([C@H](c5ccccc5)C(F)(F)F)C[C@H]4C)cnn3c(C(F)(F)F)c2C)cc1` [methanone, [5-(4-methoxyphenyl)-6-methyl-7-(trifluoromethyl)pyrazolo[1,5-α]pyrimidin-3-yl][(2R)-2-methyl-4-[(1R)-2,2,2-trifluoro-1-phenylethyl]-1-piperazinyl]-], for which the IC50 in experiment [1] and in experiment [2] was below 1 µM throughout.
For `COc1ccc(-c2nc3c(C(=O)N4CCN([C@@H](C)c5ccn(C)n5)C[C@H]4C)cnn3c(C(F)(F)F)c2C)cc1` [methanone, [5-(4-methoxyphenyl)-6-methyl-7-(trifluoromethyl)pyrazolo[1,5-α]pyrimidin-3-yl][(2R)-2-methyl-4-[(1S)-1-(1-methyl-1H-pyrazol-3-yl)ethyl]-1-piperazinyl]-], the IC50 in experiment [1] was below 1 µM; in experiment [2], 1.1 to 10 µM.
Regarding `COc1ccc(-c2nc3c(C(=O)N4CCN([C@@H](C)c5cc(F)cc(F)c5F)C[C@H]4C)cnn3c(C(F)(F)F)c2C)cc1` [methanone, [5-(4-methoxyphenyl)-6-methyl-7-(trifluoromethyl)pyrazolo[1,5-α]pyrimidin-3-yl][(2R)-2-methyl-4-[(1S)-1-(2,3,5-trifluorophenyl)ethyl]-1-piperazinyl]-], the IC50 in experiment [1] and in experiment [2] was below 1 µM each time.
With `COc1ccc(-c2nc3c(C(=O)N4CCN([C@@H](C)c5ccccn5)C[C@H]4C)cnn3c(C(F)(F)F)c2C)cc1` [methanone, [5-(4-methoxyphenyl)-6-methyl-7-(trifluoromethyl)pyrazolo[1,5-α]pyrimidin-3-yl][(2R)-2-methyl-4-[(1S)-1-(2-pyridinyl)ethyl]-1-piperazinyl]-], the IC50 in experiment [1] and in experiment [2] was below 1 µM each time.
Take `COc1ccc(-c2nc3c(C(=O)N4CCN([C@@H](C)c5nccs5)C[C@H]4C)cnn3c(C(F)(F)F)c2C)cc1` [methanone, [5-(4-methoxyphenyl)-6-methyl-7-(trifluoromethyl)pyrazolo[1,5-α]pyrimidin-3-yl][(2R)-2-methyl-4-[(1S)-1-(2-thiazolyl)ethyl]-1-piperazinyl]-]: the IC50 in experiment [1] and in experiment [2] was below 1 µM throughout.
`COc1ccc(-c2nc3c(C(=O)N4CCN([C@@H](C)c5cccs5)C[C@H]4C)cnn3c(C(F)(F)F)c2C)cc1` [methanone, [5-(4-methoxyphenyl)-6-methyl-7-(trifluoromethyl)pyrazolo[1,5-α]pyrimidin-3-yl][(2R)-2-methyl-4-[(1S)-1-(2-thienyl)ethyl]-1-piperazinyl]-]: the IC50 in experiment [1] and in experiment [2] was below 1 µM throughout.
Consider `COc1ccc(-c2nc3c(C(=O)N4CCN([C@@H](C)c5cc(F)c(F)c(F)c5)C[C@H]4C)cnn3c(C(F)(F)F)c2C)cc1` [methanone, [5-(4-methoxyphenyl)-6-methyl-7-(trifluoromethyl)pyrazolo[1,5-α]pyrimidin-3-yl][(2R)-2-methyl-4-[(1S)-1-(3,4,5-trifluorophenyl)ethyl]-1-piperazinyl]-], for which the IC50 in experiment [1] and in experiment [2] was below 1 µM in each case.
Turning to `COc1ccc(-c2nc3c(C(=O)N4CCN([C@@H](C)c5cccnc5)C[C@H]4C)cnn3c(C(F)(F)F)c2C)cc1` [methanone, [5-(4-methoxyphenyl)-6-methyl-7-(trifluoromethyl)pyrazolo[1,5-α]pyrimidin-3-yl][(2R)-2-methyl-4-[(1S)-1-(3-pyridinyl)ethyl]-1-piperazinyl]-], the IC50 in experiment [1] and in experiment [2] was below 1 µM in each case.
As for `COc1ccc(-c2nc3c(C(=O)N4CCN([C@@H](C)c5ccncc5)C[C@H]4C)cnn3c(C(F)(F)F)c2C)cc1` [methanone, [5-(4-methoxyphenyl)-6-methyl-7-(trifluoromethyl)pyrazolo[1,5-α]pyrimidin-3-yl][(2R)-2-methyl-4-[(1S)-1-(4-pyridinyl)ethyl]-1-piperazinyl]-], the IC50 in experiment [1] and in experiment [2] was below 1 µM throughout.
With `COc1ccc(-c2nc3c(C(=O)N4CCN([C@@H](C)c5ccc(S(C)(=O)=O)cc5)C[C@H]4C)cnn3c(C(F)(F)F)c2C)cc1` [methanone, [5-(4-methoxyphenyl)-6-methyl-7-(trifluoromethyl)pyrazolo[1,5-α]pyrimidin-3-yl][(2R)-2-methyl-4-[(1S)-1-[4-(methylsulfonyl)phenyl]ethyl]-1-piperazinyl]-], the IC50 in experiment [1] and in experiment [2] was 1.1 to 10 µM throughout.
As for `COc1ccc(-c2nc3c(C(=O)N4CCN([C@@H](C)c5ccccc5)C[C@H]4C)cnn3c(C(F)(F)F)c2C)cc1` [methanone, [5-(4-methoxyphenyl)-6-methyl-7-(trifluoromethyl)pyrazolo[1,5-α]pyrimidin-3-yl][(2R)-2-methyl-4-[(1S)-1-phenylethyl]-1-piperazinyl]-], the IC50 in experiment [1] and in experiment [2] was below 1 µM throughout.
For the compound `COc1ccc(-c2nc3c(C(=O)N4CCN([C@@H](c5ccccc5)C(F)(F)F)C[C@H]4C)cnn3c(C(F)(F)F)c2C)cc1` [methanone, [5-(4-methoxyphenyl)-6-methyl-7-(trifluoromethyl)pyrazolo[1,5-α]pyrimidin-3-yl][(2R)-2-methyl-4-[(1S)-2,2,2-trifluoro-1-phenylethyl]-1-piperazinyl]-], the IC50 in experiment [1] and in experiment [2] was below 1 µM in each case.
Regarding `COc1ccc(-c2nc3c(C(=O)N4CCN([C@@H](CO)c5ccccc5)C[C@H]4C)cnn3c(C(F)(F)F)c2F)cc1` [methanone, [6-fluoro-5-(4-methoxyphenyl)-7-(trifluoromethyl)pyrazolo[1,5-α]pyrimidin-3-yl][(2R)-4-[(1R)-2-hydroxy-1-phenylethyl]-2-methyl-1-piperazinyl]-], the IC50 in experiment [1] and in experiment [2] was below 1 µM each time.
